Assay results as given in article PMC8906351 (Pharmaceutical research, 2021).
Where a name gives a salt, the structure may show the parent alone. Values belong to the compound of their own block, whether it stands above or below them.

Assays:
[1] = system: [^14C]phenytoin efflux across the rat BBB; assay: BEI inhibition study: pre-administration of compounds into rat Par2 region; assay type: in vivo; settings: for effect of pre-administration on [14C]phenytoin BEI (in words): 20 mM desipramine, probenecid, MK-571, 5 mM quinidine, 4 mM verapamil, 500 μM prazosin, 10 mM methotrexate, DHEAS, PSC833
[2] = system: MCT8; settings: concentration of 1 mM; cited from earlier work
[3] = rat, 0.01 uCi
[4] = Brain efflux index; settings: rat
[5] = in vivo; settings: rat, not told
[6] = adult rats; brain uptake index; cited from earlier work
[7] = system: P-glycoprotein (P-gp); assay: In situ brain perfusion in wild-type and mdr1a/1b knockout mice; assay type: in vivo, mouse; settings: [14C]phenytoin 2.73 μM; perfusion 2.5 mL/min for 2 min
[8] = Brain efflux index; assay type: in vivo, mouse

Structure (SMILES): CN(C)C(=O)CCSC(SCCC(=O)O)c1cccc(/C=C/c2ccc3ccc(Cl)cc3n2)c1 (centres unmarked) [MK-571]
- effect of pre-administration on [14C]phenytoin BEI (in words) ([1]; rat, 30 min): not significantly altered

Structure (SMILES): CNCCCN1c2ccccc2CCc2ccccc21 [Desipramine, desipramine hydrochloride]
- BEI (%) ([1]; 0.5 h, 20000 µM): 28.4 ± 20.7%
- effect of pre-administration on [14C]phenytoin BEI (in words) ([1]; rat, 30 min): significantly decreased
- inhibition of MCT8-mediated transport of the other substrates [2]: more than 50%

Structure (SMILES): COc1cc2nc(N3CCN(C(=O)c4ccco4)CC3)nc(N)c2cc1OC [Prazosin, prazosin]
- effect of pre-administration on [14C]phenytoin BEI (in words) ([1]; rat, 30 min): not significantly altered
- BEI (%) ([1]; rat, 30 min, compound 0.5 mM pre-administered, control 64.1 ± 12.9): 59.4 ± 8.5%

Structure (SMILES): CN(Cc1cnc2nc(N)nc(N)c2n1)c1ccc(C(=O)N[C@@H](CCC(=O)O)C(=O)O)cc1 [Methotrexate, methotrexate]
- BEI (%) ([1]; 0.5 h, 10000 µM): 67.3 ± 16.7%
- effect of pre-administration on [14C]phenytoin BEI (in words) ([1]; rat, 30 min): not significantly altered

Structure (SMILES): O=C1OC(c2ccc(O)c(S(=O)(=O)O)c2)(c2ccc(O)c(S(=O)(=O)O)c2)c2c(Br)c(Br)c(Br)c(Br)c21 [BSP, Bromosulfophthalein]
- decrease of [14C]phenytoin BEI ([1]; rat, 30 min, pre-administration of 20 mM): 82%
- inhibition of MCT8-mediated transport of the other substrates [2]: more than 50%

Structure (SMILES): C=C[C@H]1C[N@@]2CC[C@H]1C[C@@H]2[C@@H](O)c1ccnc2ccc(OC)cc12 [Quinidine, quinidine]
- BEI (%) ([1]; 0.5 h, 5000 µM): 50.5 ± 13.1%
- effect of pre-administration on [14C]phenytoin BEI (in words) ([1]; rat, 30 min): not significantly altered

- elimination rate constant kel, bbb ([3]; in vivo): 0.0413 ± 46 min⁻¹
- half-life t1/2 of brain efflux ([3]; not told): 16.8 ± 1.9 min
- elimination clearance relative to influx clearance ([4]; 177 vs 64 μL/(min·g brain) of Cornford et al.): 2.8 fold
- elimination clearance across the BBB ([4]; from kel, bbb and Vd, brain): 177 ±20 μL/(mim•g brain)
- half-life [5]: 17 min
- Kin value, wild-type vs mdr1a/1b knockout mice [7]: not significantly different
- brain elimination rate constant kel, BBB ([8]; mice, [14C]phenytoin 1.15 mM, 0.3 μL injected into S2 region): 0.0223 ± 0.0075 min⁻¹
- half-life t1/2 in the brain ([8]; mice, [14C]phenytoin injected into S2 region): 31.1 ± 10.8 min
- half-life ([8]; mouse, brain (ipsilateral hemisphere), 0.019 μCi/0.3 μL (= 1.15 mM)): 31 min
Structure (SMILES): O=C1NC(=O)C(c2ccccc2)(c2ccccc2)N1 [phenytoin, 5,5-diphenylhydantoin]
- 100 − BEI value of [14C]phenytoin compared to control ([1]; rat, 30 min, pre-administration of 1 mM unlabeled phenytoin): significantly increased
- blood-to-brain influx clearance [6]: 64 μL/(min·g brain)

Structure (SMILES): C/C=C/C[C@@H](C)C(=O)[C@H]1C(=O)N[C@@H](C(C)C)C(=O)N(C)CC(=O)N(C)[C@@H](CC(C)C)C(=O)N[C@@H](C(C)C)C(=O)N(C)[C@@H](CC(C)C)C(=O)N[C@@H](C)C(=O)N[C@H](C)C(=O)N(C)[C@@H](CC(C)C)C(=O)N(C)[C@@H](CC(C)C)C(=O)N(C)[C@@H](C(C)C)C(=O)N1C [PSC833]
- effect of pre-administration on [14C]phenytoin BEI (in words) ([1]; rat, 30 min): did not alter

Structure (SMILES): CCCN(CCC)S(=O)(=O)c1ccc(C(=O)O)cc1 [Probenecid, probenecid]
- BEI (%) ([1]; 0.5 h, 20000 µM): 56.5 ± 24.9%
- effect of pre-administration on [14C]phenytoin BEI (in words) ([1]; rat, 30 min): not significantly altered
